{
  "source": "patent US11167084B2",
  "about": "“Control device for controlling the administration of propofol to a patient” (Fresenius Vial SAS, priority 2016, dated 2021)",
  "origin": "cited, not measured here",
  "conditions": "Hill equation relating effect-site concentration to BIS; Emax=E0=100, y=2; FIG. 1 from T. A. Lim, Br J Anaesth 2006",
  "data": [
    {"smiles": "CC(C)c1cccc(C(C)C)c1O", "note": "[propofol]", "values": [
      {"measurement": "EC50 (propofol effective concentration 50, effect-site)", "value": 4.14, "unit": "µg/mL"}
    ]}
  ]
}
